According to the supplement of paper PMC11451515:

What was measured:
Conditions in all cases: 48 h
[1] = system: P12-Ichikawa; assay: AUC of viability dose-response curve (% viability x log10 dose units); higher = less sensitive
Procedure, shortened: (§1)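 Medium-adapted leukemia cells in 1536-well plates, at 500 or 1000 cells/well, were incubated for 48 h at 37°C with library compounds in DMSO at 11 threefold doses from 47 μM to 0.79 nM. CellTiter-Glo One luminescence normalised per plate to DMSO and cell-free wells was fitted with a four-parameter log-logistic model over log10 doses. Area under the curve was integrated from this fit by trapezoidal rule, with curves beyond full viability scaled and failed quality-control curves removed.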

[2] = system: NOMO1; assay: as above
Procedure, shortened: as §1

[3] = system: P12-Ichikawa; assay: cell viability relative to DMSO control; higher = less cytotoxic
Procedure, shortened: (§2)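 NOMO1 or SEM cells were plated at 500 cells/well and P12-Ichikawa cells at 1000 cells/well in 1536-well plates (5 μl), after each leukemia line had been adapted for at least four passages in each medium. Pin dosing delivered library compounds in DMSO at 11 threefold concentrations, 47 μM to 0.79 nM. CellTiter-Glo One luminescence was read after 48 h at 37°C. Viability is reported as a per-plate percentage of DMSO wells, with cell-free wells as background.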

[4] = system: SEM cells; assay: as above
Procedure, shortened: as §2

[5] = system: NOMO1; assay: as above
Procedure, shortened: as §2

CC[C@@]1(O)C(=O)OCC/2=C1/C=C3\N(CC4=CC5=CC(=CC=C5N=C34)O)C2=O
AUC of viability dose-response curve
Conditions	HPLM + 10% dialyzed FBS	RPMI 5 mM glucose + 10% FBS	RPMI 5 mM glucose + 10% dialyzed FBS
[1]	180	176	181
[2]	251	261	271

cell viability [%]
Conditions	[3]	[4]	[5]
HPLM + 10% dialyzed FBS, 0.000781 µM	–	120	–
HPLM + 10% dialyzed FBS, 0.00234 µM	–	128	–
HPLM + 10% dialyzed FBS, 0.00702 µM	–	120	–
HPLM + 10% dialyzed FBS, 0.0211 µM	–	104	–
HPLM + 10% dialyzed FBS, 0.0632 µM	–	58.8	–
HPLM + 10% dialyzed FBS, 0.19 µM	–	20.9	–
HPLM + 10% dialyzed FBS, 0.569 µM	–	18.9	–
HPLM + 10% dialyzed FBS, 1.71 µM	–	8.26	–
HPLM + 10% dialyzed FBS, 5.12 µM	–	7.73	–
HPLM + 10% dialyzed FBS, 15.4 µM	–	6.07	–
HPLM + 10% dialyzed FBS, 46.1 µM	–	5.91	–
RPMI 5 mM glucose + 10% FBS, 0.000781 µM	122	79.1	116
RPMI 5 mM glucose + 10% FBS, 0.00234 µM	120	81.5	123
RPMI 5 mM glucose + 10% FBS, 0.00702 µM	117	73	133
RPMI 5 mM glucose + 10% FBS, 0.0211 µM	91.5	70.2	107
RPMI 5 mM glucose + 10% FBS, 0.0632 µM	11.4	22.6	113
RPMI 5 mM glucose + 10% FBS, 0.19 µM	9.55	11.6	33.3
RPMI 5 mM glucose + 10% FBS, 0.569 µM	8.05	9.45	23.8
RPMI 5 mM glucose + 10% FBS, 1.71 µM	7.2	6.47	22.6
RPMI 5 mM glucose + 10% FBS, 5.12 µM	6.2	5.43	18.6
RPMI 5 mM glucose + 10% FBS, 15.4 µM	5.86	3.87	22.8
RPMI 5 mM glucose + 10% FBS, 46.1 µM	6.96	4.1	13.4
RPMI 5 mM glucose + 10% dialyzed FBS, 0.000781 µM	115	99.6	111
RPMI 5 mM glucose + 10% dialyzed FBS, 0.00234 µM	127	112	124
RPMI 5 mM glucose + 10% dialyzed FBS, 0.00702 µM	106	114	117
RPMI 5 mM glucose + 10% dialyzed FBS, 0.0211 µM	88.7	93.1	117
RPMI 5 mM glucose + 10% dialyzed FBS, 0.0632 µM	16.9	43	121
RPMI 5 mM glucose + 10% dialyzed FBS, 0.19 µM	12.1	17.9	40.4
RPMI 5 mM glucose + 10% dialyzed FBS, 0.569 µM	10.2	13	23.8
RPMI 5 mM glucose + 10% dialyzed FBS, 1.71 µM	6.53	7.18	25.8
RPMI 5 mM glucose + 10% dialyzed FBS, 5.12 µM	6.88	6.51	24.5
RPMI 5 mM glucose + 10% dialyzed FBS, 15.4 µM	6.54	6.28	26.4
RPMI 5 mM glucose + 10% dialyzed FBS, 46.1 µM	8.98	4.96	9.6
